Measured values reported in ChEMBL document CHEMBL1137599, “Discovery of uracil-based histone deacetylase inhibitors able to reduce acquired antifungal resistance and trailing growth in Candida albicans” (Bioorg Med Chem Lett, 2007).
Converted amounts (≈) assume the structure as drawn.

Tests used:
Candida albicans [1] = test: Effect of compound on Candida albicans sensitivity to Fluconazole: Minimum inhibitory concentration required to inhibit the growth of 50% of isolates after 24h.; assay type: functional
Candida albicans [2] = test: Effect of compound on Candida albicans sensitivity to Fluconazole: Minimum inhibitory concentration required to inhibit the growth of 90% of isolates after 24h.; assay type: functional
Candida albicans [3] = test: microbe, parasite or virus in culture; assay type: functional; settings: 48 h
Description: Effect of compound on Candida albicans sensitivity to Fluconazole: Minimum inhibitory concentration required to inhibit the growth of 50% of isolates after 48h.

Candida albicans [4] = test: Effect of compound on Candida albicans sensitivity to Fluconazole: Minimum inhibitory concentration required to inhibit the growth of 90% of isolates after 48h.; assay type: functional
Histone deacetylase 1 = Histone deacetylase 1 (Mus musculus, UniProt O09106); test: Inhibition of mouse HDAC1 (mean)
Histone deacetylase HD2 = target: T1, Histone deacetylase HD2 (Zea mays, UniProt Q94F81); test: Inhibition of maize HD2 (mean)
T1 sequence (Q94F81 whole entry): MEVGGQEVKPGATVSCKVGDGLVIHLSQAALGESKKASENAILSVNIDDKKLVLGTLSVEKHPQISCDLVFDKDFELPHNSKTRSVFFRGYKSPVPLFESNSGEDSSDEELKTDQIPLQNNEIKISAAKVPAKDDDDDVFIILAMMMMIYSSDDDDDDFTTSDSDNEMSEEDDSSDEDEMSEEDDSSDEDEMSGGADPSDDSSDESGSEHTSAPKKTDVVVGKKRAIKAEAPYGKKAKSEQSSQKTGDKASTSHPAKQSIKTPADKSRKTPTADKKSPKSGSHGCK

Histone deacetylase HD1B = Histone deacetylase HD1B (Zea mays, UniProt Q9ZTP8); test: Inhibition of maize HD1-B (mean)
[5] = target: Histone deacetylase HD1-A (Zea mays); test: Inhibition of maize HD1-A (mean)

Chain of Histone deacetylase HD1B (Q9ZTP8 whole entry): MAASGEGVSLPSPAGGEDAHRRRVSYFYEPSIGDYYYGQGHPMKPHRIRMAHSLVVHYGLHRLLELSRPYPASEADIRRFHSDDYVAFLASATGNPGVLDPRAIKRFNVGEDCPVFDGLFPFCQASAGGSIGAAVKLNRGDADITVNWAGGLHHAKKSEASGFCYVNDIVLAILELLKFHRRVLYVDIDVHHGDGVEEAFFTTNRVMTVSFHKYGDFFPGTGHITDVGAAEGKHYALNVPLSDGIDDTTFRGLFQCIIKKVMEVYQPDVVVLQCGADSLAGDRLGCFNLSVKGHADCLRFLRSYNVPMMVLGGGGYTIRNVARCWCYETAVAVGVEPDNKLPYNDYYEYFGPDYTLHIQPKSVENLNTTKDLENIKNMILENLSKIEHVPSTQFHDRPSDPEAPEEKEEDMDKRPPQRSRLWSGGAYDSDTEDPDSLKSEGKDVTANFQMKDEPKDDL
Chain of Histone deacetylase 1 (O09106 whole entry): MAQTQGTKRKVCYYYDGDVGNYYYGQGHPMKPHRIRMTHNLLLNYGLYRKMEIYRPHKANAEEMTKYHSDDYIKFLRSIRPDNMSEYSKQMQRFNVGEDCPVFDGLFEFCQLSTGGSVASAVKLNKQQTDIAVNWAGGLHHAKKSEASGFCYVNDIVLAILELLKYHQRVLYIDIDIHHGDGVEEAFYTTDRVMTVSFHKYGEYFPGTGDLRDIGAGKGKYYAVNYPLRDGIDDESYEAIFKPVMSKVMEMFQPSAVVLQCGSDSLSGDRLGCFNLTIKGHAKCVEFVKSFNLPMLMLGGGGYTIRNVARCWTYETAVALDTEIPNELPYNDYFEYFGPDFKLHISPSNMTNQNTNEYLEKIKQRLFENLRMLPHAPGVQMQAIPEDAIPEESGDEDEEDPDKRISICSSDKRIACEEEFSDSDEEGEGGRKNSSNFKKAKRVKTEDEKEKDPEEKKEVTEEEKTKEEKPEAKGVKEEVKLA

Structure (SMILES) | MIC50 (Candida albicans [1]) [µg/mL] | MIC90 (Candida albicans [2]) [µg/mL] | MIC50 (Candida albicans [3]) [µg/mL] | MIC90 (Candida albicans [4]) [µg/mL] | IC50 (Histone deacetylase 1) [µg/mL] | IC50 (Histone deacetylase HD2) [µg/mL] | IC50 (Histone deacetylase HD1B) [µg/mL] | IC50 [5] [µg/mL]
O=C(CCCCSc1nc(-c2ccccc2)cc(=O)[nH]1)NO | 0.5 (≈ 1.57 µM) | 4 (≈ 12.5 µM) | 0.5 (≈ 1.57 µM) | 12 (≈ 37.6 µM) |  |  |  | 
O=C(CCCCSc1nc(-c2cccc(Cl)c2)cc(=O)[nH]1)NO | 0.44 (≈ 1.24 µM) | 3.42 (≈ 9.67 µM) | 1 (≈ 2.83 µM) | 8 (≈ 22.6 µM) | 0.013 (≈ 0.0367 µM) | 0.006 (≈ 0.017 µM) | 0.004 (≈ 0.0113 µM) | 
O=C(CCCCSc1nc(-c2ccc(Cl)cc2)cc(=O)[nH]1)NO | 0.5 (≈ 1.41 µM) | 2 (≈ 5.65 µM) | 1 (≈ 2.83 µM) | 16 (≈ 45.2 µM) | 0.018 (≈ 0.0509 µM) | 0.006 (≈ 0.017 µM) | 0.004 (≈ 0.0113 µM) | 0.001 (≈ 0.00283 µM)
O=C(CCCCCSc1nc(Cc2ccccc2)cc(=O)[nH]1)NO | 0.5 (≈ 1.44 µM) | 4 (≈ 11.5 µM) | 0.625 (≈ 1.8 µM) | 12 (≈ 34.5 µM) |  |  |  | 
OC(Cn1cncn1)(Cn1cncn1)c1ccc(F)cc1F [FLUCONAZOLE] | 1.45 (≈ 4.73 µM) | 3.6 (≈ 11.8 µM) | 2.5 (≈ 8.16 µM) | 11 (≈ 35.9 µM) |  |  |  | 
O=C(CCCCCCC(=O)Nc1ccccc1)NO [VORINOSTAT] |  |  |  |  |  | 0.013 (≈ 0.0492 µM) | 0.007 (≈ 0.0265 µM) | 
